The record followed here is US20250145606A1 (Arcus Biosciences, Inc., priority 2023, published 2025).

Holding throughout (conditions): biochemical, HTRF KinEASE-TK
For test [1], the target named is c-Kit (Homo sapiens (Human), UniProt P10721). Description: Inhibition of c-Kit kinase activity (HTRF KinEASE-TK). The test is classed as biochemical. As to the method: (§1) Inhibition of c-Kit, PDGFRα, PDGFRβ, CSFIR and FLT3 Kinase Activity
(§2) Compounds were evaluated to determine the potency with which they inhibit the kinase activity of the following panel of tyrosine kinases: c-Kit (SignalChem, Product #: K06-11BG), PDGFRα (SignalChem, Product #: P12-18G), PDGFRβ (SignalChem, Product #: P13-11G), CSFIR (SignalChem, Product #: C74-11G) and FLT3 (Invitrogen, Product #: PR4666C). Activity was determined as a function of phosphorylated biotinylated TK peptide generated by the transfer of phosphate from ATP as measured by the use of the HTRF KinEASE-TK assay kit (Cisbio, Product #: 62TKOPEJ). Levels of phosphorylated biotinylated TK peptide (Part 61TKOBLC of KinEASE assay kit) are quantified by its capture by phosphor-TK-Antibody-Cryptate (Part of KinEASE assay kit) and XL665-labeled Streptavidin (Part 610SAXLG of KinEASE assay kit) followed by measurement of Time-Resolved Fluorescence Resonance Energy Transfer (TR-FRET) signal. On the day of the assay, compounds were solubilized in DMSO and dispensed into a 384-well white Opti-plate (PerkinElmer, catalog #6007290) to generate a 22 point 1:2 titration. Enzyme solution was prepared for each of the tyrosine kinases in 50 mM HEPES, pH 7.4, 5 mM MgCl2 for c-Kit or 10 mM MgCl2 for FLT3, CSFIR, PDGFRa and PDGFRβ, 2 mM MnCl2, 0.01% Brij-35 and 0.01% BSA. Working enzyme concentrations were prepared for c-Kit at 2 nM (2×), PDGFRa and PDGFRß at 10 nM (2×), CSFIR at 2 nM (2×) and FLT3 at 0.4 nM (2×). Five microliters of enzyme dilution of each tyrosine kinase were added to their respective 384-well white Opti-plate pre-dispensed with compound and allowed to incubate for 1 h at rt. Utilizing the same enzyme buffer recipe, 2x substrate mixes were prepared for each enzyme as follows: For c-Kit, 1.6 μM (2×) TK substrate and 16 μM (2×) ATP (Promega, catalog #V915). For PDGFRα, 3.2 μM TK substrate and 1 μM ATP. For PDGFRβ, 3.2 μM TK substrate and 40 μM ATP. For CSFIR, […] TK substrate and 20 μM ATP. For FLT3, 3.2 μM TK substrate and 100 μM ATP. Reactions were initiated by addition of 5 μL of the respective 2x substrate mix to each well of the plates containing the respective tyrosine kinase enzymes and were allowed to proceed for 120 minutes at rt, except for FLT3, the reaction time is 45 min. Following the reaction, 10 μL of detection mix consisting of 0.2 μM (2×) of Streptavidin-XL665 and 2 μM (2×) of TK-Antibody-Cryptate prepared in detection buffer (Part 62SDBRDF of KinEASE assay kit) was added and then allowed to incubate for 60 min. The TR-FRET signal was quantified by measuring the ratio of emission at 665 nm to 620 nm after excitation at 320 nm by reading on a PerkinElmer Envision multimode reader. Compound potencies (IC50 values) were determined using a standard 4-parameter non-linear regression fit.

In test [2] the target is PDGFRα (Homo sapiens (Human), UniProt P16234). Description: Inhibition of PDGFRα kinase activity (HTRF KinEASE-TK). As to the method:
as §1, §2

In test [3] the target is PDGFRβ (Homo sapiens (Human), UniProt P09619). Put plainly: Inhibition of PDGFRβ kinase activity (HTRF KinEASE-TK). The method, then:
as §1, §2

In test [4] the target is CSF1R (Homo sapiens (Human), UniProt P07333). Put plainly: Inhibition of CSF1R kinase activity (HTRF KinEASE-TK). As to the method: as §1, §2
CSF1R, sequence (P07333 20-972): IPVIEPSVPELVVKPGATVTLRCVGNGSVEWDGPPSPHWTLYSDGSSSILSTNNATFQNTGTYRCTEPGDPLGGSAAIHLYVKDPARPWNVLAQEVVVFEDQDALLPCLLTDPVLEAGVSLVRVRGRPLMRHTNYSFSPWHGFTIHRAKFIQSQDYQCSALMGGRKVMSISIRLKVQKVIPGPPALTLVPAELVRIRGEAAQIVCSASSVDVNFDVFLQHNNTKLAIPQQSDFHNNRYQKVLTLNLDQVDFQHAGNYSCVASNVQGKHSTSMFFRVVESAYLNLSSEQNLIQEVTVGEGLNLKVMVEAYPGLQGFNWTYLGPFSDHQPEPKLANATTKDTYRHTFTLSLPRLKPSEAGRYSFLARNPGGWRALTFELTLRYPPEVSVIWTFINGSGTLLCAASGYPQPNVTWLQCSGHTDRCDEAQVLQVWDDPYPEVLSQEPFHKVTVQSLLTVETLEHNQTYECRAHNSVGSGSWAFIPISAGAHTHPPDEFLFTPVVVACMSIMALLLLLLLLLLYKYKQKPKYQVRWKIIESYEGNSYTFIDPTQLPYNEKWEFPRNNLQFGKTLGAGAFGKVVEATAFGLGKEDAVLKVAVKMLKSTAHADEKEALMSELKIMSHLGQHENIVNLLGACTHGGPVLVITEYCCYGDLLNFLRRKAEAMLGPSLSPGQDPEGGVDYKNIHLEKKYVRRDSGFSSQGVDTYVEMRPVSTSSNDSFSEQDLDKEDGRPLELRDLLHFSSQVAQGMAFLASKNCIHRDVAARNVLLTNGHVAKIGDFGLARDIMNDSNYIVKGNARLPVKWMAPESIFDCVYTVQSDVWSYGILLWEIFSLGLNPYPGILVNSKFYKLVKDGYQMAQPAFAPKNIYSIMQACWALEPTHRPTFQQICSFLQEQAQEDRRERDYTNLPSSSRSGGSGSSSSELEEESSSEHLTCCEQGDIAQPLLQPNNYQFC
A general note: Time-resolved FRET reads energy transfer from a long-lived donor to a nearby acceptor.

PDGFRβ, sequence (P09619 33-1106): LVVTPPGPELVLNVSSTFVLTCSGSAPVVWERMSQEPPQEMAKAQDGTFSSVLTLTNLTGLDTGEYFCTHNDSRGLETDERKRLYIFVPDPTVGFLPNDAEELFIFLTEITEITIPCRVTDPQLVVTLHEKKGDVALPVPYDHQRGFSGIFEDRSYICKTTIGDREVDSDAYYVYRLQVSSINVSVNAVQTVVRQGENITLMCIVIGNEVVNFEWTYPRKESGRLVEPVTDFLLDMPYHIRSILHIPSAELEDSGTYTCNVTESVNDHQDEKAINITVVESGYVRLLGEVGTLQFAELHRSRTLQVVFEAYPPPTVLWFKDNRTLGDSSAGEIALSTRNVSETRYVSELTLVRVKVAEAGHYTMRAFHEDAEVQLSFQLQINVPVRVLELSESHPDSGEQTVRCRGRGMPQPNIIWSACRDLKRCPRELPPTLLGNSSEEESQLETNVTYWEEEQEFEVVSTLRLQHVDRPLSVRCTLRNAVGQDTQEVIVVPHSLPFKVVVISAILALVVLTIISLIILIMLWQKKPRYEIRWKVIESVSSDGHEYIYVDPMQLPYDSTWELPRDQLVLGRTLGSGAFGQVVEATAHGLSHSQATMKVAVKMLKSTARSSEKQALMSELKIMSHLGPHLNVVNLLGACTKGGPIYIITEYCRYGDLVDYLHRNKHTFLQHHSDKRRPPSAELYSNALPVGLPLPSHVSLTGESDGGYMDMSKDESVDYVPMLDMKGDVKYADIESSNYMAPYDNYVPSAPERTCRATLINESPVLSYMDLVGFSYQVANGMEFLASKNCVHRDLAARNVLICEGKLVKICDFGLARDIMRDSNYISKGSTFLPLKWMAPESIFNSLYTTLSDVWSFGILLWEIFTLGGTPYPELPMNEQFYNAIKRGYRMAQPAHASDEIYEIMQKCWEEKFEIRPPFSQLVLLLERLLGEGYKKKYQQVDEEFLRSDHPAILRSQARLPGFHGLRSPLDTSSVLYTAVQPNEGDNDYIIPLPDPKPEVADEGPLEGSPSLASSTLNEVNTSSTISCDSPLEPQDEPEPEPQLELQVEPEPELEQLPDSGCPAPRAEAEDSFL
PDGFRα, sequence (P16234 24-1089): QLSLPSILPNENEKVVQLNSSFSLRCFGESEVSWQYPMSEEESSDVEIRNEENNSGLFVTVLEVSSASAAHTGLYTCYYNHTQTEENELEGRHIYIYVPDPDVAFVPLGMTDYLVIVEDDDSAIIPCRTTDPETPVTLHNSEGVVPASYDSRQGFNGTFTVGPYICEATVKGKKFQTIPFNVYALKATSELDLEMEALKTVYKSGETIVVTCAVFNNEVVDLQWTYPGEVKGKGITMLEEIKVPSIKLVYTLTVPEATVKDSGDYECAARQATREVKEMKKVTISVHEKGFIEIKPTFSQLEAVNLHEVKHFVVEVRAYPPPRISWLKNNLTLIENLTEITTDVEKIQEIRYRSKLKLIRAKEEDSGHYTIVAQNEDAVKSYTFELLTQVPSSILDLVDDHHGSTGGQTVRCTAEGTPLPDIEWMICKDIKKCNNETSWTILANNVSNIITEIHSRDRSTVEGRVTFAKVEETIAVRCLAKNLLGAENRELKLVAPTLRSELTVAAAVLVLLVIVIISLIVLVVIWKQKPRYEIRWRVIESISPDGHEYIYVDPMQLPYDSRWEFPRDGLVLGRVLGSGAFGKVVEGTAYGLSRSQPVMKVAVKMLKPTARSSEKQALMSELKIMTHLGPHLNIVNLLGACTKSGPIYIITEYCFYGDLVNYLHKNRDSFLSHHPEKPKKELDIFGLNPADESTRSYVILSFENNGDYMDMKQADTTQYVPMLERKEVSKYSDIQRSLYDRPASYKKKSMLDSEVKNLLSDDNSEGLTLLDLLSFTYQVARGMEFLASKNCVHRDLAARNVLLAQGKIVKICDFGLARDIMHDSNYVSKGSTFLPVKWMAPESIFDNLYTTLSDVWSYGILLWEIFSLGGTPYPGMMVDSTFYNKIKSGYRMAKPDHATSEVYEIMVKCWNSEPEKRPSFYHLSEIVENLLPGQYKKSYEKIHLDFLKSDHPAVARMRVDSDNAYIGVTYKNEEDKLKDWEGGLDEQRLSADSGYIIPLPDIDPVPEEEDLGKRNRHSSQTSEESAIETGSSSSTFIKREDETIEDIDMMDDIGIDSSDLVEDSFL
c-Kit, sequence (P10721 26-976): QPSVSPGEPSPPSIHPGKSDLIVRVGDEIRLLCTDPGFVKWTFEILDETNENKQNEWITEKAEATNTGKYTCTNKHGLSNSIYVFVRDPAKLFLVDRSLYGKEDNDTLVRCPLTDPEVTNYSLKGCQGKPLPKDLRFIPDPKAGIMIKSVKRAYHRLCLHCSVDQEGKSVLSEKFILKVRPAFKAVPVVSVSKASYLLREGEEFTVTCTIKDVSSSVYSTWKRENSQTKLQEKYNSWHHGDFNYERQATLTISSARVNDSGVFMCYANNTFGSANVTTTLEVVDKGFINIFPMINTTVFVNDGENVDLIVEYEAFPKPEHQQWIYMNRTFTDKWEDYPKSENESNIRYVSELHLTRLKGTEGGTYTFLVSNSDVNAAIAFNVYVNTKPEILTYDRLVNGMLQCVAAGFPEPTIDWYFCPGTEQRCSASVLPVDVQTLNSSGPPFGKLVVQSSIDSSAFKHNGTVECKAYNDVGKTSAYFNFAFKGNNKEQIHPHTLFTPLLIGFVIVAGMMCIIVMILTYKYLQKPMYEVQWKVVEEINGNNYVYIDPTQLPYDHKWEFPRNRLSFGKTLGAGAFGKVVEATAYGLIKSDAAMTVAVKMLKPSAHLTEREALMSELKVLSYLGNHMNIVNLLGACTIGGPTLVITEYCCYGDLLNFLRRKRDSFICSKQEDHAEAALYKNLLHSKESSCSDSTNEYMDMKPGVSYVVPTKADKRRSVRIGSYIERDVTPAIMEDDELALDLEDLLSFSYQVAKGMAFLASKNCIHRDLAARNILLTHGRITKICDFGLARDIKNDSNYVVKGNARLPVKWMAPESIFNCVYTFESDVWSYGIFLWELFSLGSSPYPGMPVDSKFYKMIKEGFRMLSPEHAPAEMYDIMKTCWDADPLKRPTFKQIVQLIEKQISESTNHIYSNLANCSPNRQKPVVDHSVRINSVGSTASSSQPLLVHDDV

Take `Cc1ncc(C(=O)Nc2cc(C(=O)Nc3ccc(C(F)F)cn3)c(F)cc2C)s1` [Example 16, N-[5-[[5-(Difluoromethyl)pyridin-2-yl]carbamoyl]-4-fluoro-2-methylphenyl]-2-methyl-1,3-thiazole-5-carboxamide]: the IC50 in test [1] was under 0.1 µM; in test [2] it was over 1 µM; in test [3], over 1 µM; in test [4], over 1 µM.
Turning to `Cc1ncc(C(=O)Nc2cc(C(=O)Nc3ccc(C(F)(F)F)nc3)c(F)cc2C)s1` [Example 26, N-[4-Fluoro-2-methyl-5-[[6-(trifluoromethyl)pyridin-3-yl]carbamoyl]phenyl]-2-methyl-1,3-thiazole-5-carboxamide], the IC50 in test [1] was under 0.1 µM; in test [2], over 1 µM; in test [3] it was over 1 µM; in test [4], over 1 µM.
As to `Cc1ncc(C(=O)Nc2cc(C(=O)Nc3ccc(C4CC4)nn3)c(F)cc2C)s1` [Example 35, N-[5-[(6-cyclopropylpyridazin-3-yl)carbamoyl]-4-fluoro-2-methylphenyl]-2-methyl-1,3-thiazole-5-carboxamide], the IC50 in test [1] was under 0.1 µM; in test [2], over 1 µM; in test [3], over 1 µM; in test [4] it was over 1 µM.
Consider `COCc1ccc(NC(=O)c2cc(NC(=O)c3cnc(C)s3)c(C)cc2F)nc1` [Example 37, N-[4-fluoro-5-[[5-(methoxymethyl)pyridin-2-yl]carbamoyl]-2-methylphenyl]-2-methyl-1,3-thiazole-5-carboxamide], for which the IC50 in test [1] was 0.1 to 1 µM; in test [2], over 1 µM; in test [3], over 1 µM; in test [4], over 1 µM.
In the case of `Cc1ncc(C(=O)Nc2cc(C(=O)Nc3ccc(OCC(F)(F)F)cn3)c(F)cc2C)s1` [Example 41, N-[4-fluoro-2-methyl-5-[[5-(2,2,2-trifluoroethoxy)pyridin-2-yl]carbamoyl]phenyl]-2-methyl-1,3-thiazole-5-carboxamide], the IC50 in test [1] is under 0.1 µM; in test [2] it was over 1 µM; in test [3] it was over 1 µM; in test [4], over 1 µM.
Regarding `Cc1ncc(C(=O)Nc2cc(C(=O)Nc3cnc(C4CC4)nc3)c(F)cc2C)s1` [Example 42, N-[5-[(2-cyclopropylpyrimidin-5-yl)carbamoyl]-4-fluoro-2-methylphenyl]-2-methyl-1,3-thiazole-5-carboxamide], the IC50 in test [1] was under 0.1 µM; in test [2] it was over 1 µM; in test [3] it was over 1 µM; in test [4], over 1 µM.
In the case of `Cc1ncc(C(=O)Nc2cc(C(=O)Nc3cnc(C4CC4)cn3)c(F)cc2C)s1` [Example 43, N-[5-[(5-cyclopropylpyrazin-2-yl)carbamoyl]-4-fluoro-2-methylphenyl]-2-methyl-1,3-thiazole-5-carboxamide], the IC50 in test [1] is under 0.1 µM; in test [2], over 1 µM; in test [3] it was over 1 µM; in test [4], over 1 µM.
For `COCc1ccc(NC(=O)c2cc(NC(=O)c3cnc(C)s3)c(Cl)cc2F)nc1` [Example 47, N-[2-chloro-4-fluoro-5-[[5-(methoxymethyl)pyridin-2-yl]carbamoyl]phenyl]-2-methyl-1,3-thiazole-5-carboxamide], the IC50 in test [1] was 0.1 to 1 µM; in test [2], over 1 µM; in test [3] it was over 1 µM; in test [4], over 1 µM.
With `Cc1ncc(C(=O)Nc2cc(C(=O)NCCCN3CCOCC3)c(F)cc2C)s1` [Example 57, N-[4-Fluoro-2-methyl-5-(3-morpholin-4-ylpropylcarbamoyl)phenyl]-2-methyl-1,3-thiazole-5-carboxamide], the IC50 in test [1] is 0.1 to 1 µM; in test [2], over 1 µM; in test [3], over 1 µM; in test [4] it was over 1 µM.
Regarding `Cc1cc(F)c(C(=O)Nc2ccc(OC3CC3)cn2)cc1NC(=O)c1cnc(C(F)F)s1` [Example 59, N-[5-[(5-Cyclopropyloxypyridin-2-yl)carbamoyl]-4-fluoro-2-methylphenyl]-2-(difluoromethyl)-1,3-thiazole-5-carboxamide], the IC50 was under 0.1 µM in test [1], over 1 µM in test [2], over 1 µM in test [3] and over 1 µM in test [4].
For `Cc1cc(F)c(C(=O)Nc2ccc(OC3CC3)cn2)cc1NC(=O)c1cnc(C2CC2)s1` [Example 60, 2-Cyclopropyl-N-[5-[(5-cyclopropyloxypyridin-2-yl)carbamoyl]-4-fluoro-2-methylphenyl]-1,3-thiazole-5-carboxamide], the IC50 in test [1] is 0.1 to 1 µM; in test [2] it was over 1 µM; in test [3], over 1 µM; in test [4], over 1 µM.
As to `Cc1ncc(C(=O)Nc2cc(C(=O)Nc3ccc(OC4CC4)c(C)n3)c(F)cc2C)s1` [Example 62, N-[5-[(5-Cyclopropyloxy-6-methylpyridin-2-yl)carbamoyl]-4-fluoro-2-methylphenyl]-2-methyl-1,3-thiazole-5-carboxamide], the IC50 in test [1] is under 0.1 µM; in test [2], over 1 µM; in test [3], over 1 µM; in test [4], over 1 µM.
Turning to `Cc1ncc(C(=O)Nc2cc(C(=O)Nc3ccc(OCC4CC4)cn3)c(F)cc2C)s1` [Example 65, N-[5-[[5-(cyclopropylmethoxy)pyridin-2-yl]carbamoyl]-4-fluoro-2-methylphenyl]-2-methyl-1,3-thiazole-5-carboxamide], the IC50 was under 0.1 µM in test [1], over 1 µM in test [2], over 1 µM in test [3] and over 1 µM in test [4].
Take `Cc1ncc(C(=O)Nc2cc(C(=O)NCC3(F)CCC3)c(F)cc2C)s1` [Example 68, N-[4-Fluoro-5-[(1-fluorocyclobutyl)methylcarbamoyl]-2-methylphenyl]-2-methyl-1,3-thiazole-5-carboxamide]: the IC50 is 0.1 to 1 µM in test [1], over 1 µM in test [2], over 1 µM in test [3] and over 1 µM in test [4].
For `Cc1ncc(C(=O)Nc2cc(C(=O)Nc3ccn(C(F)F)n3)c(F)cc2C)s1` [Example 69, N-[5-[[1-(difluoromethyl)pyrazol-3-yl]carbamoyl]-4-fluoro-2-methylphenyl]-2-methyl-1,3-thiazole-5-carboxamide], the IC50 is 0.1 to 1 µM in test [1], over 1 µM in test [2], over 1 µM in test [3] and over 1 µM in test [4].
Turning to `Cc1ncc(C(=O)Nc2cc(C(=O)NCc3ccn(C(C)C)n3)c(F)cc2C)s1` [Example 79, N-[4-fluoro-2-methyl-5-[(1-propan-2-ylpyrazol-3-yl)methylcarbamoyl]phenyl]-2-methyl-1,3-thiazole-5-carboxamide], the IC50 in test [1] is under 0.1 µM; in test [2], over 1 µM; in test [3], over 1 µM; in test [4], over 1 µM.
Regarding `Cc1cc(F)c(C(=O)Nc2ccc(OC3CC3)cn2)cc1NC(=O)c1cnc(NC(=O)OC2CCC2)s1` [Example 106], the IC50 in test [1] was under 0.1 µM; in test [2], over 1 µM; in test [3], 0.1 to 1 µM; in test [4], over 1 µM.
In the case of `Cc1cc(F)c(C(=O)Nc2ccc(OC3CC3)cn2)cc1NC(=O)c1cnc(NC(=O)[C@@H]2CCOC2)s1` [Example 107, N-[5-[(5-cyclopropyloxypyridin-2-yl)carbamoyl]-4-fluoro-2-methylphenyl]-2-[[(3R)-oxolane-3-carbonyl]amino]-1,3-thiazole-5-carboxamide], the IC50 is under 0.1 µM in test [1], over 1 µM in test [2], 0.1 to 1 µM in test [3] and over 1 µM in test [4].

What is called IC50 is the concentration at which inhibition is half-maximal. Low values mean greater potency, high ones weaker potency.
